System: iniA
Assay type: cell-based, BCG

NNC(=O)c1ccncc1 [isoniazid]
Induction of iniA in isoniazid resistant BCG strain: Lack of iniA induction | Induction of iniA in isoniazid susceptible BCG strain: seen only in the susceptible BCG strain

Reference: US6821769B2, “IniB, iniA and iniC genes of mycobacteria and methods of use” (priority 1998, dated 2004)
